According to the NIST ThermoML archive (doi:10.1021/je400402n):
± gives the expanded uncertainty stated by the source.

Conditions: 101 kPa, Liquid, HP 4194A impedance-gain phase analyzer

C[S+](C)[O-] [dimethyl sulfoxide]
Conditions | electrical conductivity [S/m]
293.15 K | 0.000188 ± 3.8e-06
295.15 K | 0.000201 ± 4e-06
297.15 K | 0.000211 ± 4.2e-06
299.15 K | 0.000225 ± 4.5e-06
301.15 K | 0.000236 ± 4.7e-06
303.15 K | 0.000248 ± 5e-06
305.15 K | 0.000262 ± 5.2e-06
307.15 K | 0.000274 ± 5.5e-06
309.15 K | 0.000287 ± 5.7e-06
311.15 K | 0.0003 ± 6e-06
313.15 K | 0.000315 ± 6.3e-06
315.15 K | 0.000328 ± 6.6e-06
317.15 K | 0.000341 ± 6.8e-06
319.15 K | 0.000355 ± 7.1e-06
321.15 K | 0.000369 ± 7.4e-06
323.15 K | 0.000384 ± 7.7e-06
325.15 K | 0.000399 ± 8e-06
327.15 K | 0.000419 ± 8.4e-06
329.15 K | 0.000437 ± 8.7e-06
331.15 K | 0.000455 ± 9.1e-06
333.15 K | 0.000474 ± 9.5e-06
